Experimental data as given in patent publication US20230143119A1, “PHARMACEUTICAL COMPOSITION FOR PREVENTION OR TREATMENT OF DIABETES AND METABOLIC DISEASES ASSOCIATED THEREWITH” (DONG-A ST CO., LTD., priority 2020, published 2023).

Columns and labels:
DIO mice = assay: 12-week drug-diet admixture in diet-induced obese (DIO) and insulin resistant mice; format: in vivo, C57BL/6J mice; settings: compound 1 100 mg/kg/day, elafibranor 30 mg/kg/day, alone or in combination, 12 weeks
Description: To induce insulin resistance, six-weeks old male C57BL/6J mice were supplied with a special diet of high fat, high fructose and high cholesterol (Research Diets Inc., D09100301) for at least 27 weeks. A drug-diet admixture was prepared so that diet-induced obese (DIO) and insulin resistant mice could be administered with each of compound 1 at 100 mg/kg/day and elafibranor at 30 mg/kg/day as a PPAR agonist alone or in combination. The prepared drug-diet admixture was supplied to mice for 12 weeks. Nonfasting blood glucose level was measured from plasma collected after autopsy at a time point of 12 weeks after drug administration using a Roche's AccuChek Active glucose meter.

HF mice = assay: Three-week administration in high fat diet (HF) insulin resistant mice; format: in vivo, C57BL/6J male mice; settings: for effect of reducing body fat: compound 1 50 mg/kg or metformin 150 mg/kg twice a day alone, body composition analysis by NMR; for blood concentration of total GLP-1 (GLP-1 secretion) / weight loss: compound 1 50 mg/kg, metformin 150 mg/kg, twice a day, alone or co-administered; for blood concentration of total GLP-1 (GLP-1 secretion): three weeks, nonfasting autopsy; for weight loss: two weeks
Description: Four-weeks old C57BL/6J male mice were supplied with a high fat diet (Research Diets Inc., D12492; 60% kcal fat) for ten weeks so as to induce insulin resistance. After acclimatization to drug administration for two weeks, the mice were assigned into each group based on body weight and body fat. Compound 1 was administered alone at 50 mg/kg twice a day to a compound 1 monotherapy group, and metformin was administered alone at 150 mg/kg twice a day to a metformin monotherapy group. The co-administration group was orally co-administered with compound 1 at 50 mg/kg and metformin at 150 mg/kg twice a day for three weeks. […] Fasting blood glucose was measured from whole blood collected from a tail vein after fasting for six hours at the second week of administration using a Roche's AccuChek Active glucose meter.

normal mice = assay: Single dose administration in normal mice with oral sucrose loading; format: in vivo, ICR male mice; settings: oral compound 1 3 mg/kg, voglibose 0.02 mg/kg, alone or in combination; sucrose 2 g/kg 30 min later
Description: At a time point of 30 minutes later, sucrose solution was orally loaded at 2 g/kg/10 ml. […] A time-blood glucose level response curve was obtained. In terms of a rate of change, a comparison was made between an area under the time-blood glucose level curve in a control group administered with solvent only and an area under the time-blood glucose level curve in a drug administration group.

## CCc1cnc(N2CCC(CCCOc3cc(F)c(-c4noc(C(C)C)n4)c(F)c3)CC2)nc1 [compound 1, 3-(4-(3-(1-(5-ethylpyrimidin-2-yl)piperidin-4-yl)propoxy)-2,6-difluorophenyl)-5-isopropyl-1,2,4-oxadiazole]
DIO mice
  hypoglycemic effect (nonfasting blood glucose level): did not exhibit a significant hypoglycemic effect
HF mice
  effect of reducing body fat: no effect of reducing body fat
  blood concentration of total GLP-1 (GLP-1 secretion): significant increase in GLP-1 secretion was not identified
  weight loss: −4.0%

## CSc1ccc(C(=O)/C=C/c2cc(C)c(OC(C)(C)C(=O)O)c(C)c2)cc1 [elafibranor]
DIO mice
  hypoglycemic effect (nonfasting blood glucose level): exhibited a hypoglycemic effect

## CN(C)C(=N)N=C(N)N [metformin]
HF mice
  effect of reducing body fat: insignificant effect of reducing body fat
  blood concentration of total GLP-1 (GLP-1 secretion): significant increase in GLP-1 secretion was not identified
  weight loss: −4.4%

## OCC(CO)N[C@H]1C[C@](O)(CO)[C@@H](O)[C@H](O)[C@H]1O [voglibose]
Normal mice
  hypoglycemic effect (postprandial blood glucose for two hours after sucrose loading): no hypoglycemic effect
